# Test results: US20240270762A1, “PENICILLIN-BINDING PROTEIN INHIBITORS” (priority 2021, published 2024)
# Tests used:
# [1] = target: T1, PBP3 from Pseudomonas aeruginosa (PAO1) (Pseudomonas aeruginosa, UniProt G3XD46); experiment: Bocillin-FL fluorescence polarization competition binding, P. aeruginosa PBP3; settings: Binding affinity to P. aeruginosa PBP3; fluorescence polarization competition binding assay using Bocillin-FL; read-out: P. aeruginosa PBP3 Potency
# T1 construct: made in house
# How it was run: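 Purified PBPs pre-incubated with inhibitor (E. coli PBP3 1.5 μM, 30 min; P. aeruginosa PBP3 0.75 μM, A. baumannii PBP1a 1 μM and PBP3 0.2 μM, 15 min), then Bocillin-FL 0.1 μM (0.05 μM for PBP1a) added; FP read up to 60 min. EC50 = concentration halving bound Bocillin-FL.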
# A. baumannii PBP2 = A. baumannii PBP2 (Acinetobacter baumannii, UniProt D0C8Z9); experiment: Bocillin-FL competition binding via gel filtration, A. baumannii PBP2
# Sequence of A. baumannii PBP2 (D0C8Z9 whole entry): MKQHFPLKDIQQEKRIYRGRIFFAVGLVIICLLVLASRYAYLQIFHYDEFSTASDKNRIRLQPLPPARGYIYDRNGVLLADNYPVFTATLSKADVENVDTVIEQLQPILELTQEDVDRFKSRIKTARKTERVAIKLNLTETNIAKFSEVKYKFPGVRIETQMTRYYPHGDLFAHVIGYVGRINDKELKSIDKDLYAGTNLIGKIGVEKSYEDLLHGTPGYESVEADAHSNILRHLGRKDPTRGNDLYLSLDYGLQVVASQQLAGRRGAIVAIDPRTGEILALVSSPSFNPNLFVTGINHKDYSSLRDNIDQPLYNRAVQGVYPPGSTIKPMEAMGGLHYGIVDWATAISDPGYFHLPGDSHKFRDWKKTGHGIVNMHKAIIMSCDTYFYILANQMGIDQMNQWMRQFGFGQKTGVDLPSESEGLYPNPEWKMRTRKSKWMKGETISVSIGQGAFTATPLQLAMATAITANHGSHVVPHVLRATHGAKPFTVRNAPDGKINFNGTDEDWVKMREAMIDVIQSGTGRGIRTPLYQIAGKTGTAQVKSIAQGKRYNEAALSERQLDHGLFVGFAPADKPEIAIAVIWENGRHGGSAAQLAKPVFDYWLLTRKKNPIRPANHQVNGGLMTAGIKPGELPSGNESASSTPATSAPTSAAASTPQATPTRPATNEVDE
# How it was run: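 Enzyme pre-incubated with increasing inhibitor concentrations, then Bocillin-FL added for 15 min further incubation. Bocillin-FL-bound PBP separated by gel filtration and fluorescence read. EC50 from fitting fraction PBP bound vs inhibitor concentration to a Hill-type equation (ymin, ymax, n).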
# A. baumannii ATCC 17978 = experiment: microbe, parasite or virus in culture; type: cell-based; settings: Acinetobacter baumannii, ATCC17978, read-out: MIC, A. baumannii ATCC 17978
# A. baumannii ATCC 19606 = experiment: microbe, parasite or virus in culture; type: cell-based; settings: Acinetobacter baumannii, ATCC19606, read-out: MIC, A. baumannii ATCC 19606
# P. aeruginosa ATCC 35151 = experiment: microbe, parasite or virus in culture; type: cell-based; settings: Pseudomonas aeruginosa, ATCC35151, read-out: Minimum inhibitory concentration, P. aeruginosa ATCC 35151
# P. aeruginosa CDC-0095 = experiment: microbe, parasite or virus in culture; type: cell-based; settings: Pseudomonas aeruginosa, CDC0095, read-out: Minimum inhibitory concentration, P. aeruginosa CDC-0095
# A. baumannii 1258916 = experiment: microbe, parasite or virus in culture; type: cell-based, Acinetobacter baumannii; settings: Acinetobacter baumannii, 1258916, read-out: MIC, A. baumannii 1258916
# A. baumannii CDC-0033 = experiment: microbe, parasite or virus in culture; type: cell-based; settings: Acinetobacter baumannii, CDC0033, read-out: MIC, A. baumannii CDC-0033
# A. baumannii CDC-0036 = experiment: microbe, parasite or virus in culture; type: cell-based; settings: Acinetobacter baumannii, CDC0036, read-out: MIC, A. baumannii CDC-0036
# A. baumannii CDC-0045 = experiment: microbe, parasite or virus in culture; type: cell-based; settings: Acinetobacter baumannii, CDC0045, read-out: MIC, A. baumannii CDC-0045
# A. baumannii CDC-0083 = experiment: microbe, parasite or virus in culture; type: cell-based; settings: Acinetobacter baumannii, CDC0083, read-out: MIC, A. baumannii CDC-0083
# [2] = system: B. thailandensis ATCC 700388; experiment: microbe, parasite or virus in culture; type: cell-based; settings: Burkholderia thailandensis, ATCC700388, read-out: Minimum inhibitory concentration (MIC), B. thailandensis ATCC 700388
# [3] = system: B. humptydooensis ATCC BAA-2767; experiment: microbe, parasite or virus in culture; type: cell-based; settings: Burkholderia humptydooensis, ATCCBAA2767, read-out: Minimum inhibitory concentration (MIC), B. humptydooensis ATCC BAA-2767
# T1 sequence (G3XD46 whole entry): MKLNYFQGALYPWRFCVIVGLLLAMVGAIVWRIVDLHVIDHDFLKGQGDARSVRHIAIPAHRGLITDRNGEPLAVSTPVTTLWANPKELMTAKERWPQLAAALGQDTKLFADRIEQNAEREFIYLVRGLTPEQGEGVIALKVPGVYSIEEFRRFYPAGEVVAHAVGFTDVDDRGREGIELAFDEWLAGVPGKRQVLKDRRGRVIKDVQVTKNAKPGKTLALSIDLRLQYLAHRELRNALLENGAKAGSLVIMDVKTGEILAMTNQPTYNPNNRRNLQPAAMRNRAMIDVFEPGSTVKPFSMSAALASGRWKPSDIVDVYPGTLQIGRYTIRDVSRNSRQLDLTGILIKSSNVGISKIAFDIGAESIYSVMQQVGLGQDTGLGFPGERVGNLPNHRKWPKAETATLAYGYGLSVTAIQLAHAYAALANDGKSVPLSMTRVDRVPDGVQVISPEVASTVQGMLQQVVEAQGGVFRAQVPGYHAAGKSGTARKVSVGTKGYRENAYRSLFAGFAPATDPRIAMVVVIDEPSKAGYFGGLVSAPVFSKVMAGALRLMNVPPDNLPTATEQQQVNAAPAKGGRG
SMILES,IC50 [1],EC50 (A. baumannii PBP2),MIC (A. baumannii ATCC 17978),MIC (A. baumannii ATCC 19606),MIC (P. aeruginosa ATCC 35151),MIC (P. aeruginosa CDC-0095),MIC (A. baumannii 1258916),MIC (A. baumannii CDC-0033),MIC (A. baumannii CDC-0036),MIC (A. baumannii CDC-0045),MIC (A. baumannii CDC-0083),MIC [2],MIC [3]
"O=C(NCCCN1CCN(C(=O)NC(C(=O)N[C@H]2Cc3ccc(F)c(C(=O)O)c3OB2O)c2cc(F)c(O)c(O)c2Cl)C(=O)C1=O)c1c(F)cncc1F (stereo partly drawn) [Example 402, (3R)-3-(2-(2-chloro-5-fluoro-3,4-dihydroxyphenyl)-2-(4-(3-(3,5-difluoroisonicotinamido)propyl)-2,3-dioxopiperazine-1-carboxamido)acetamido)-7-fluoro-2-hydroxy-3,4-dihydro-2H-benzo[e][1,2]oxaborinine-8-carboxylic acid]",< 10 µM,10 to 50 µM,< 1 µg/mL,< 1 µg/mL,< 1 µg/mL,< 1 µg/mL,2 to 4 µg/mL,2 to 4 µg/mL,2 to 4 µg/mL,< 1 µg/mL,2 to 4 µg/mL,2 to 4 µg/mL,2 to 4 µg/mL
"O=C(O)c1c(F)ccc2c1OB(O)[C@@H](NC(=O)C(NC(=O)N1CCN(C3CCN(C(=O)c4cncc(O)c4)CC3)C(=O)C1=O)c1cc(F)c(O)c(O)c1Cl)C2 (stereo partly drawn) [Example 425, (3R)-3-(2-(2-chloro-5-fluoro-3,4-dihydroxyphenyl)-2-(4-(1-(5-hydroxynicotinoyl)piperidin-4-yl)-2,3-dioxopiperazine-1-carboxamido)acetamido)-7-fluoro-2-hydroxy-3,4-dihydro-2H-benzo[e][1,2]oxaborinine-8-carboxylic acid]",< 10 µM,10 to 50 µM,< 1 µg/mL,< 1 µg/mL,< 1 µg/mL,2 to 4 µg/mL,< 1 µg/mL,< 1 µg/mL,< 1 µg/mL,< 1 µg/mL,8 to 16 µg/mL,< 1 µg/mL,< 1 µg/mL
"O=C(NCCCN1CCN(C(=O)NC(C(=O)N[C@H]2Cc3ccc(F)c(C(=O)O)c3OB2O)c2cc(F)c(O)c(O)c2Cl)C(=O)C1=O)c1ccncc1F (stereo partly drawn) [Example 400, (3R)-3-(2-(2-chloro-5-fluoro-3,4-dihydroxyphenyl)-2-(4-(3-(3-fluoroisonicotinamido)propyl)-2,3-dioxopiperazine-1-carboxamido)acetamido)-7-fluoro-2-hydroxy-3,4-dihydro-2H-benzo[e][1,2]oxaborinine-8-carboxylic acid]",< 10 µM,10 to 50 µM,< 1 µg/mL,< 1 µg/mL,< 1 µg/mL,2 to 4 µg/mL,2 to 4 µg/mL,2 to 4 µg/mL,2 to 4 µg/mL,< 1 µg/mL,2 to 4 µg/mL,2 to 4 µg/mL,2 to 4 µg/mL
"O=C(NCCCN1CCN(C(=O)NC(C(=O)N[C@H]2Cc3ccc(F)c(C(=O)O)c3OB2O)c2cc(F)c(O)c(O)c2Cl)C1=O)Nc1ccncc1 (stereo partly drawn) [Example 285, (3R)-3-(2-(2-chloro-5-fluoro-3,4-dihydroxyphenyl)-2-(2-oxo-3-(3-(3-(pyridin-4-yl)ureido)propyl)imidazolidine-1-carboxamido)acetamido)-7-fluoro-2-hydroxy-3,4-dihydro-2H-benzo[e][1,2]oxaborinine-8-carboxylic acid]",< 10 µM,10 to 50 µM,< 1 µg/mL,< 1 µg/mL,< 1 µg/mL,> 128 µg/mL,2 to 4 µg/mL,8 to 16 µg/mL,8 to 16 µg/mL,2 to 4 µg/mL,< 1 µg/mL,2 to 4 µg/mL,2 to 4 µg/mL
"O=C(NCCCN1CCN(C(=O)NC(C(=O)N[C@H]2Cc3ccc(F)c(C(=O)O)c3OB2O)c2cc(F)c(O)c(O)c2Cl)C(=O)C1=O)c1ccc(F)c(O)c1Cl (stereo partly drawn) [Example 412, (3R)-3-(2-(4-(3-(2-chloro-4-fluoro-3-hydroxybenzamido)propyl)-2,3-dioxopiperazine-1-carboxamido)-2-(2-chloro-5-fluoro-3,4-dihydroxyphenyl)acetamido)-7-fluoro-2-hydroxy-3,4-dihydro-2H-benzo[e][1,2]oxaborinine-8-carboxylic acid]",< 10 µM,< 10 µM,< 1 µg/mL,< 1 µg/mL,< 1 µg/mL,2 to 4 µg/mL,2 to 4 µg/mL,8 to 16 µg/mL,8 to 16 µg/mL,2 to 4 µg/mL,8 to 16 µg/mL,2 to 4 µg/mL,2 to 4 µg/mL
